Test results reported in patent US6790603B2, “Compositions for the storage of platelets” (Bioenergy, Inc., priority 1999, dated 2004).

Assays:
platelets [1] = assay: P-selectin expression in stored platelets, basal and after 10 nM thrombin challenge (flow cytometry); format: cell-based
Method: A basal measurement of spontaneous activation is obtained and the cells are then challenged with an agonist. The difference between cells challenged to activate minus the basal measurement is a measure of cell function. In the preferred embodiment, the agonist is 10 nM thrombin. P-selectin expression in response to a challenge of 10 nM thrombin is a highly accurate and quantitative method to assess platelet function using flow cytometry techniques. A monoclonal antibody to the platelet GPIIbIIIa receptor (Becton-Dickinson) is conjugated with green fluorescence, marking all platelets with a green detection. […] About 10,000 to 25,000 platelets are counted and measured for P-selectin expression and the % positive cells are defined as activated platelets that express P-selectin. Platelets that are activated are not capable of being activated a second time; that is, they are essentially nonfunctional. It was proposed years ago by Dawson (Transfusion 21:215-218. (1981)) that ribose at the concentration of 15 mM is beneficial to stored whole blood. It was assumed that ribose functioned by raising the energy levels of the cells, as discussed at length in U.S. Pat. No. 6,159,942. […] Platelet function was assessed by ATP secretion, platelet aggregation, P-selectin expression, platelet count and pH. Platelet function was measured every 24 hours. […]

platelets [2] = assay: Platelet aggregation on thrombin challenge (optical density / aggregometer); format: cell-based
Method: As a second measure of the effect of ribose on platelets, platelet aggregation was estimated. Platelet aggregation is a crucial function of platelet activity; platelets that cannot aggregate are essentially nonfunctional. Platelets were stored as above.
The optical density of the suspension was measured before and after thrombin challenge.
Platelet aggregation was measured with a platelet aggregometer (Chronolog, Inc., Irvine, Calif.). Platelet-rich, turbid suspensions were stirred in a cuvette and the transmittance of light through the sample relative to a platelet poor blank is recorded. When a aggregating agent is added, activated platelets with exposed fibrinogen receptors (GPIIbIIIa) are brought in close contact with each other in a medium containing calcium and fibrinogen and form increasingly large platelet aggregates, accompanied by a decrease in turbidity. The change in optical density was then translated by the instrument to percent aggregation. Simple stated, as platelets clump, more light passes through the cuvette.

platelets [3] = assay: ATP secretion in response to 10 nM thrombin (luciferin/luciferase assay); format: cell-based
Text: The platelet dense granules shown in FIG. 1 contain ATP which is released in response to platelet agonists such as thrombin, collagen or adenosine diphosphate (ADP). The release reaction of ATP from platelets serves as another method to monitor platelet function. There are many methods to analyze ATP. A convenient method is the well known luciferin/luciferase reaction (Sigma Chemical, St. Louis). This assay is derived from the light producing system of the firefly. The substrate luciferin, in the presence of ATP, is cleaved by the enzyme luciferase, accompanied by the emission of light. The emitted light is measured by a photomultiplier tube
Platelet suspensions containing about 350 units in 4 μl were mixed with 10 μl luciferin/luciferase reagent. An agonist is injected. As the platelet dense granules release ATP, the bioluminescent reaction occurs, which is measured by the photomultiplier tube. […] The rate of reaction is recorded and as platelet function decays, the rate decays. Total ATP was measured by lysing the cells with Triton and determining ATP content. The results as presented in Table III are expressed as intact rate of ATP secretion.

platelets [4] = assay: Preservation of function in stored platelets (ATP secretion, aggregation, P-selectin expression, pH, platelet count); format: cell-based
Method: It is known that other pentoses may have similar effects as D-Ribose, either through intracellular conversion to ribose or a direct effect. Ribulose-5-phosphate, xylulose-5-phosphate and xylitol were tested for preservation of activity in stored platelets according to the methods of examples 1 to 6.
Ribulose-5-phosphate was purchased from Sigma Chemical (St. Louis) and added to the standard CPD platelet storage solution. The following parameters of function were tested: ATP secretion in response to 10 nM thrombin; platelet aggregation; P-selectin expression in response to thrombin challenge; pH change; and platelet count. Platelet concentrate bags were obtained from a transfusion center within hours of collection. Aliquots were sampled from the platelet bags and concentrations of ribulose-5-phosphate were added for a final concentration from 1.5 mM down to 150 pM. Controls without ribulose-5-phosphate were analyzed for comparison. Samples were analyzed every 24 hours for platelet function.

whole blood = conditions: 15 mM ribose; cited from earlier work
[5] = 30 grams of ribose each day; cited from earlier work
bacteria = assay: Bacterial contamination of platelet storage solution (colony counts in Petri dishes); conditions: D-Ribose added to storage cocktail
Method: Bacterial contamination was measured by colony counts in standard Petri dishes that had been inculated with the test solution. It is assumed that the millimolar glucose concentration in most platelet storage solutions contributes to the growth of bacteria. As noted above, Murphy (Table II) discloses a glucose-free solution for the storage of platelets. Elimination of reduction of glucose levels from millimolar to micromolar concentrations has a profound effect in reducing bacterial contamination, however, platelet function at five days, as measured by ATP secretion and P-selectin expression, was poor.

O=C[C@H](O)[C@H](O)[C@H](O)CO [D-Ribose]
Preservation of function (P-selectin expression test) (platelets [1]; 150 pM D-Ribose, five days storage): ineffective
% positive (activated) cells (platelets [1]; 153 nM D-Ribose, three days storage, basal): 5%
Platelet samples with aggressive aggregation response (platelets [2]; day 3, 10 nM thrombin): all five
Platelet samples responding (aggregation) (platelets [2]; day five, thrombin): four out of five
Platelet samples able to aggregate (platelets [2]; day seven, thrombin): three out of five
Aggregation on thrombin challenge (platelets [2]; platelets stored in 150 pM D-Ribose): no aggregation
Aggregation on thrombin challenge (platelets [2]; platelets stored in 150 nM D-Ribose): strong aggregation
Aggregation on thrombin challenge (platelets [2]; platelets stored in 15 μM D-Ribose): very weak effect
Aggregation on thrombin challenge (platelets [2]; platelets stored in 1.5 mM D-Ribose): no aggregation
Preservative effect on ATP secretion (platelets [3]; 1.5 nM D-Ribose): no preservative effect
Rise in total ATP content of treated cells (platelets [3]; 150 nM D-Ribose): more than 10%
Toxicity to platelets (platelets [3]; 15 mM D-Ribose): toxic to platelets
Mean ATP secretion activity, % of baseline (platelets [3]; optimal D-Ribose (150 nM), day 7): > 80%
Platelet function compared with storage in presence of glucose (platelets [4]; 150 nM D-Ribose, glucose eliminated or reduced to micromolar): similar
Effect on stored whole blood (whole blood): beneficial
Tolerability of ingestion [5]: no ill effects
Bacterial contamination (bacteria): lower incidence of bacterial contamination

O=C(CO)[C@H](O)[C@H](O)COP(=O)(O)O [ribulose-5-phosphate, Ribulose-5-phosphate]
Platelet function parameters versus controls (platelets [4]; 1.5 mM down to 150 pM, analyzed every 24 hours): No difference from controls

OC[C@@H](O)[C@H](O)[C@@H](O)CO [xylitol]
Preservation of platelet function (platelets [4]; trends inconsistent): some benefit

O=C(CO)[C@@H](O)[C@H](O)COP(=O)(O)O [xylulose-5-phosphate, Xylulose-5-phosphate]
Platelet aggregation (platelets [2]; five days storage): weak
